Structures can show the parent of a compound that is named as a salt.

The subject of test [1] is cerebellar granule cells. The test is described as follows: Whole-cell patch clamp of tonic GABA current in cerebellar granule cells. Format: cell-based, mouse. To be noted: for GABAzine-sensitive current after incubation: 150 μM BAPTA-AM (25 min) or 0.5 μM concanamycin A; for block of GABAzine-sensitive current by anion channel blockers: 100 μM Niflumic acid, DIDS concentration not given. The protocol:
Brain slices were prepared as described in Rossi et al., 2003. For slice recording, either approximately P28 days old or more than 8 weeks old mice were used. Animals were deeply anesthetized with halothane. After decapitation, the brain was quickly excised from the skull and submerged in ice-cold cutting solution (in mM): 250 Sucrose, 26 NaHCO3, 10 D(+)-Glucose, 4 MgCl2, 3 myo-inositol, 2.5 KCl, 2 Sodium pyruvate, 1.25 NaH2PO4, 0.5 Ascorbic acid 0.1 CaCl2, 1 Kynurenic acid, pH 7.4. All solutions were gas-treated with 95% O2-5% CO2. After trimming both sides of vermis, several parasagittal slices with […] thicknesses containing cerebellar lobes were cut using a microtome (Leica VT 1000) and transferred to extracellular ACSF solution (in mM); 126 NaCl, 24 NaHCO3, 1 NaH2PO4, 2.5 KCl, 2.5 CaCl2, 2 MgCl2, 10 D(+)-Glucose, pH 7.4. Slices were incubated for one hour at least at room temperature.
For recording, slices were transferred to an electrophysiological recording chamber (RC-26G, Warner Instruments) which is continuously superfused with ASCF (artificial cerebrospinal fluid, sigma) solution (flow rate; 2 ml/min) and controlled by flower controller (Synaptosoft) and a vacuum pump (Charles Austen, model Capex 8C). Slice chamber was mounted on the stage of an upright microscope (Olympus, Japan) and viewed with an ×60 water immersion objective with differential interference contrast and infrared optics. Cellular morphologies were visually identified by Imaging Workbench 6.0 (INDEC Systems, Inc), camera controller (Hamamatsu, C4742-95), and light microscope controller (Olympus, TH4-200). Fluorescence images were viewed with mercury lamp (Olympus, U-RFL-T). Whole cell voltage-clamp recording was made from granular cell somata or Bergmann glial cells mostly located in 2-5 cerebellar lobules
Pipette resistance for granule cells was typically 10-12 MΩ and pipette was filled with an internal solution containing (in mM) 135 CsCl, 4 NaCl, 0.5 CaCl2, 10 HEPES, 5 EGTA, 2 Mg-ATP, 0.5 Na2-GTP, 10 QX-314, pH adjusted to 7.2 with CsOH (278-285 mOsmol) was used (Rossi, et al., 2003).
B6 wildtype, GFAP-GFP and hGFAP-CreERT2 trangenic mice (SPF room, Center for Neural Science, KIST, Seoul, Korea) were anaesthetized by intraperitoneal injection of 2% avertin (20 μl/g, sigma) and placed in a stereotaxic frame (David Kopf instrument). pSicoR-b1shRNA-mCherry or scrambled virus (Macrogen) was stereo-injected into cerebellar cortex at a rate of 0.2 μl/min (total 2 μl) using syringe pump (Harvard apparatus) and 25 μl syringe (Hamilton company). The coordination of injection site was 1.7 mm from the lambda and the depth was 1.5-1.7 mm from the skull.
The glia-specific CreERT activation was initiated by intraperitoneal injection of tamoxifen for 5 days prior to lentivirus injection (FIG. 4a,b). […] Tamoxifen or sunflower oil were injected intraperitoncally once a day for 5 days before lentivirus injection.
In general terms: In patch-clamp work, channel activity is measured electrically.

The test system of test [2] is cell line derived from type-2 astrocytes. To be noted: cited from earlier work.
The next test deals with T1, hBest1 (Homo sapiens, UniProt O76090).
T1 sequence (O76090 1-585): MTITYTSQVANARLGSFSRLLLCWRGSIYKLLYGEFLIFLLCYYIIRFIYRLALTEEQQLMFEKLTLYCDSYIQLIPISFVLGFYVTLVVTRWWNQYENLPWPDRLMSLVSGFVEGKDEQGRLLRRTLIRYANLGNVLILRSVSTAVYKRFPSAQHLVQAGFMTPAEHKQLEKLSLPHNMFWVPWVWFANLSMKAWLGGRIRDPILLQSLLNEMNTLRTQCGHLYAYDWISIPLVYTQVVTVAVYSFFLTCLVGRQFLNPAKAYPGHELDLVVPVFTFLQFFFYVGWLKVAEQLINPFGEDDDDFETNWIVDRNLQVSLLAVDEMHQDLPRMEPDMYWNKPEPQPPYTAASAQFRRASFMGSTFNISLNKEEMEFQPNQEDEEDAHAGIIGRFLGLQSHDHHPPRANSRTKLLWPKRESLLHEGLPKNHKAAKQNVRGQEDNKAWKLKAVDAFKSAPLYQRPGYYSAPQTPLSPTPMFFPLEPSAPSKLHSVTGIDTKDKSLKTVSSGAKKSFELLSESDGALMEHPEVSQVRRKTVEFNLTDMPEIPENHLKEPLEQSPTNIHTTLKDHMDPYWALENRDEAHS
The note with it: cited from earlier work.

In test [3] the test system is cerebellar granule cells. Nature of the test: Clomeleon imaging of [Cl−]i in cerebellar granule cells (tonic GABA release). It is filed as cell-based, mouse. The note with it: bath application of 10 μM. The protocol:
B6 wildtype, GFAP-GFP and hGFAP-CreERT2 trangenic mice (SPF room, Center for Neural Science, KIST, Seoul, Korea) were anaesthetized by intraperitoneal injection of 2% avertin (20 μl/g, sigma) and placed in a stereotaxic frame (David Kopf instrument). pSicoR-b1shRNA-mCherry or scrambled virus (Macrogen) was stereo-injected into cerebellar cortex at a rate of 0.2 μl/min (total 2 μl) using syringe pump (Harvard apparatus) and 25 μl syringe (Hamilton company). The coordination of injection site was 1.7 mm from the lambda and the depth was 1.5-1.7 mm from the skull. […]
Clomeleon, based on fluorescence resonance energy transfer (FRET), is a genetically-encoded fluorescent indicator for Cl^− in which chloride-sensitive yellow fluroscent protein fused with chloride-insensitive cyan fluorescent protein via a flexible peptide linker (Kuner and Augustine, 2000). […]
For imaging, two ROIs (Regions of Interest) covering the granule cell layer and the molecular layer were drawn. […] Fluorescence excitation was produced by two consecutive 200 to 500 ms long light pulses at 0.5 Hz and fluorescence emission was alternately collected at each wavelength with a back-illuminated, cooled CCD camera with the on-chip multiplication gain control (Cascade 512B, Photometrics). […]

The test system of another test is GABAc receptors. The test is described as follows: Patch clamp of GABAc expressing HEK293 cells challenged with 100 μM GABA. It is filed as cell-based. The note with it: 100 μM GABA in absence or presence of 100 μM NFA and 100 μM NPPB. Here is the method: FIGS. 7a and 7b show the results when GABAc expressing HEK293 cells were patch clamped and challenged with 100 μM GABA in the absence and presence of 100 μM NFA and 100 μM NPPB; and
In FIGS. 7a and 7b, GABAc expressing HEK293 cells were patch clamped and challenged with 100 μM GABA in the absence or presence of 100 μM NFA and 100 μM NPPB.

A further test deals with T2, Best1 channel (Mus musculus, UniProt O88870).
T2 construct: mBest1 full-length fragment from pGEM-T easy plasmid (6.65 kb, Promega) was subcloned into pcDNA 3.1; expressed in transfected cells; host or cells: HEK293T (ATCC)
T2 sequence (O88870 1-551 R255K): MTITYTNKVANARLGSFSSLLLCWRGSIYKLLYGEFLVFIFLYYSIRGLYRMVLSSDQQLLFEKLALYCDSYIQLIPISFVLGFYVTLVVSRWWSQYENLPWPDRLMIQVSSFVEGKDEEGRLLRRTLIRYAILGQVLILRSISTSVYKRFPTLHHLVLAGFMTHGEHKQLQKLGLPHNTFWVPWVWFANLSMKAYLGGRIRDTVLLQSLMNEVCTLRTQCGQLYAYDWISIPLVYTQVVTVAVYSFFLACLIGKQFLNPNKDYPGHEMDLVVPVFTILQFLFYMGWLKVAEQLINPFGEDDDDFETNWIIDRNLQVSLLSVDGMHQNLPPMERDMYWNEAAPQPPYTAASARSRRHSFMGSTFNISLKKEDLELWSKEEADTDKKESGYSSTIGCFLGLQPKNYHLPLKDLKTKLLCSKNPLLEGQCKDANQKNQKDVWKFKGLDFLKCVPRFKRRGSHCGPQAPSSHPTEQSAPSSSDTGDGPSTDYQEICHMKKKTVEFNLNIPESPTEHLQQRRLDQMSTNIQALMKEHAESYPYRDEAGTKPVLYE
Format: cell-based. To be noted: NPPB and NFA at 100 μM; inward current in GABAc sensor cell.

From the text for Best1 channel: For Best1 channel to mediate release of GABA, it has to permeate GABA upon channel opening. To test for GABA permeability of Best1 channel, a two-cell sniffer patch technique was developed to directly measure GABA release via Best1 channel in sensor HEK293T cells that express GABAc, and via other channels that are expressed in source HEK293T cells (FIG. 1b).
pIRES-Best1-dsRED plasmid (obtained by cloning Best1 using pIRES-dsRED (Invitrogen)) and GABAc with GFP (obtained by cloning GABAc using pcDNA3.1 (Invitrogen)) were transfected into HEK 293T cells (ATCC) using Effectene transfection reagent (Qiagen). […]
GABA release was induced by a break-though of membrane patch that goes into a whole-cell configuration in the source cell and such the released GABA was monitored and detected by a neighboring sensor cell. Full activation of GABA current was obtained by bath application of 100 μM GABA and the percentage of full activation was calculated (FIGS. 1c and 1d).
Permeated GABA is detected in sensor as an inward current (bottom traces). […] The GABA permeability of said mutant was determined by using cells obtained by transfecting said mutant into HEK293t cell (ATCC). […] The GABA permeability of said AN01 was determined by using cells obtained by transfecting said mutant into HEK293t cell (ACTT).

In the case of `CC(=O)OCOC(=O)CN(CC(=O)OCOC(C)=O)c1ccccc1OCCOc1ccccc1N(CC(=O)OCOC(C)=O)CC(=O)OCOC(C)=O` [BAPTA-AM, 1,2-Bis(2-aminophenoxy)ethane-N,N,N′,N′-tetraacetic acid tetrakis(acetoxymethyl ester)], the “GABAzine-sensitive current after incubation” value in the test with cerebellar granule cells [1] is on record as “significantly reduced”.

As for `O=S(=O)(O)c1cc(N=C=S)ccc1C=Cc1ccc(N=C=S)cc1S(=O)(=O)O` [DIDS, 4,4′-diisothiocyanatostilbene-2,2′-disulfonic acid], the “sensitivity of P2X7-induced [3H]-GABA release to inhibitors” value in test [2] was “sensitive”. For the same compound, the “block of hBest1 Cl− channel” value on hBest1 was “readily blocked”. Besides, the “block of GABAzine-sensitive current by anion channel blockers” value in the test with cerebellar granule cells [1] is listed as “blocked the GABAzine-sensitive current significantly”.

On to `COc1ccc(-c2ccc(=N)n(CCCC(=O)O)n2)cc1` [GABAzine, SR95531 hydrobromide], for which the “[Cl−]i in granular cell bodies and parallel fibers” value with cerebellar granule cells [3] was “markedly decreased”. This compound gave a GABAzine-sensitive current with cerebellar granule cells [1] (naïve mice, holding −60 mV) of 35.68±4.05 pA.

On to `O=C(O)c1cccnc1Nc1cccc(C(F)(F)F)c1` [NFA, Niflumic acid], for which the “GABA response of GABAc expressing HEK293 cells” value with GABAc receptors is “do not have significant impact”. Moreover, the “block of hBest1 Cl− channel” value on hBest1 is listed as “readily blocked”. In addition, on Best1 channel, the “GABA release via Best1” value was “completely abolished”. Further, the “block of GABAzine-sensitive current by anion channel blockers” value in the test with cerebellar granule cells [1] was “blocked the GABAzine-sensitive current significantly”.

With `CC(=O)Nc1ccc(C=Cc2ccc(N=C=S)cc2S(=O)(=O)O)c(S(=O)(=O)O)c1` [SITS, 4-acetamido-4′-isothiocyanostilbene-2,2′-disulphonic acid], the “sensitivity of P2X7-induced [3H]-GABA release to inhibitors” value in test [2] is “sensitive”.

Compound `CC/C(=C(\c1ccccc1)c1ccc(OCCN(C)C)cc1)c1ccccc1` [Tamoxifen] yielded an NPPB-sensitive current in the test on cerebellar granule cells [1] (hGFAP-CreERT2 mice with Tamoxifen and Best1-shRNA lentivirus, naïve 18.95±2.47 pA) of 19.27±2.2 pA. Moreover, in the test with cerebellar granule cells [1] (hGFAP-CreERT2 mice, tamoxifen i.p. 5 days, then Best1-shRNA lentivirus (glia-specific rescue)), the GABAzine-sensitive current came to 31.31±2.19 pA.

Regarding `C/C=C/[C@H]1O[C@@](O)([C@@H](C)[C@H](O)[C@H](C)[C@H]2OC(=O)/C(OC)=C/C(C)=C/[C@@H](C)[C@@H](O)[C@@H](CC)[C@@H](O)[C@H](C)C/C(C)=C/C=C/[C@@H]2OC)C[C@@H](O[C@H]2C[C@@H](O)[C@H](OC(N)=O)[C@@H](C)O2)[C@@H]1C` [concanamycin A], the “GABAzine-sensitive current after incubation” value with cerebellar granule cells [1] is listed as “did not have such affect”.

The values are drawn from US9095535B2, “GABA release-regulating agent in cerebellum” (KOREA INSTITUTE OF SCIENCE AND TECHNOLOGY, priority 2009, dated 2015).
